These results are taken from patent US12030878B2 (BRISTOL-MYERS SQUIBB COMPANY, priority 2017, dated 2024).

Format in all cases: cell-based
Test [1] deals with T1, human TLR8 (Homo sapiens, UniProt Q9NR97).
T1 construct: host or cells: HEK-Blue cells
T1 sequence (Q9NR97 27-1041): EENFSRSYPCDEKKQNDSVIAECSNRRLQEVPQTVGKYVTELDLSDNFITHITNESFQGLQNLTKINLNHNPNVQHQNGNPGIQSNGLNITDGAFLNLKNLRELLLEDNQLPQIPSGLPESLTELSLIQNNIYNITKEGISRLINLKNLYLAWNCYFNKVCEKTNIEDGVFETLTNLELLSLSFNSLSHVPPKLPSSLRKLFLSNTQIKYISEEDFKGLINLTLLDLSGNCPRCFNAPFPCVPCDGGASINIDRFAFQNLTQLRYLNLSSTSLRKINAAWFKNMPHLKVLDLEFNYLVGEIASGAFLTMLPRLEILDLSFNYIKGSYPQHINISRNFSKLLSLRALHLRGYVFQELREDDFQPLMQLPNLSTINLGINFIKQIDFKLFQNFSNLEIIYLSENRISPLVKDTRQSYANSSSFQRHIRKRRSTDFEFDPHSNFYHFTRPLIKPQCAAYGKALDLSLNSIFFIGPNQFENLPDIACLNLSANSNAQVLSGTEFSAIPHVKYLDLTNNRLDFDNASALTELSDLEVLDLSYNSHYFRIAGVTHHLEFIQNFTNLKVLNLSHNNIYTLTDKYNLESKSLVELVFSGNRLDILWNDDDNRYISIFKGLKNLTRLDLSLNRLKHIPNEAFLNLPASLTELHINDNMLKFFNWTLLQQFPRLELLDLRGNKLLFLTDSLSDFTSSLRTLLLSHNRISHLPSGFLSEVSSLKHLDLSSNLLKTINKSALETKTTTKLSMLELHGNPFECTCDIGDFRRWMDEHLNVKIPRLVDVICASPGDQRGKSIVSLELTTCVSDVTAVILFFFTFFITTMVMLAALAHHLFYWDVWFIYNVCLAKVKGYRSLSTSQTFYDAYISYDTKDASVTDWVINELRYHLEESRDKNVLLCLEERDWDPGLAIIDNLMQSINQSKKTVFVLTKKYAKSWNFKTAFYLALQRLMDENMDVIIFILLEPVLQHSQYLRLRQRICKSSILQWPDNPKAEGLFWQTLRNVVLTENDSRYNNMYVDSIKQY
Description: TLR8 inhibition reporter assay (HEK-Blue SEAP). To be noted: HEK-Blue cells overexpressing human TLR8, stimulated with R848 15.9 μM, 22 hour incubation. As for the experimental part:
(§1) TLR7/8/9 Inhibition Reporter Assays
(§2) HEK-Blue™-cells (Invivogen) overexpressing human TLR7, TLR8 or TLR9 receptors were used for screening inhibitors of these receptors using an inducible SEAP (secreted embryonic alkaline phosphatase) reporter gene under the control of the IFN-β minimal promoter fused to five NF-κB and AP-1-binding sites. Briefly, cells are seeded into Greiner 384 well plates (15000 cells per well for TLR7, 20.000 for TLR8 and 25,000 for TLR9) and then treated with test compounds in DMSO to yield a final dose response concentration range of 0.05 nM-50 μM. After a 30 minute compound pre-treatment at room temperature, the cells are then stimulated with a TLR7 ligand (gardiquimod at a final concentration of 7.5 μM), TLR8 ligand (R848 at a final concentration of 15.9 μM) or TLR9 ligand (ODN2006 at a final concentration of 5 nM) to activate NF-κB and AP-1 which induce the production of SEAP. After a 22 hour incubation at 37° C., 5% CO2, SEAP levels are determined with the addition of HEK-Blue™ Detection reagent (Invivogen), a cell culture medium that allows for detection of SEAP, according to manufacturer's specifications. The percent inhibition is determined as the % reduction in the HEK-Blue signal present in wells treated with agonist plus DMSO alone compared to wells treated with a known inhibitor.
A general note: A reporter such as luciferase makes a cellular process visible.

The target in test [2] is T2, human TLR9 (Homo sapiens, UniProt Q9NR96).
T2 construct: host or cells: HEK-Blue cells
T2 sequence (Q9NR96 26-1032): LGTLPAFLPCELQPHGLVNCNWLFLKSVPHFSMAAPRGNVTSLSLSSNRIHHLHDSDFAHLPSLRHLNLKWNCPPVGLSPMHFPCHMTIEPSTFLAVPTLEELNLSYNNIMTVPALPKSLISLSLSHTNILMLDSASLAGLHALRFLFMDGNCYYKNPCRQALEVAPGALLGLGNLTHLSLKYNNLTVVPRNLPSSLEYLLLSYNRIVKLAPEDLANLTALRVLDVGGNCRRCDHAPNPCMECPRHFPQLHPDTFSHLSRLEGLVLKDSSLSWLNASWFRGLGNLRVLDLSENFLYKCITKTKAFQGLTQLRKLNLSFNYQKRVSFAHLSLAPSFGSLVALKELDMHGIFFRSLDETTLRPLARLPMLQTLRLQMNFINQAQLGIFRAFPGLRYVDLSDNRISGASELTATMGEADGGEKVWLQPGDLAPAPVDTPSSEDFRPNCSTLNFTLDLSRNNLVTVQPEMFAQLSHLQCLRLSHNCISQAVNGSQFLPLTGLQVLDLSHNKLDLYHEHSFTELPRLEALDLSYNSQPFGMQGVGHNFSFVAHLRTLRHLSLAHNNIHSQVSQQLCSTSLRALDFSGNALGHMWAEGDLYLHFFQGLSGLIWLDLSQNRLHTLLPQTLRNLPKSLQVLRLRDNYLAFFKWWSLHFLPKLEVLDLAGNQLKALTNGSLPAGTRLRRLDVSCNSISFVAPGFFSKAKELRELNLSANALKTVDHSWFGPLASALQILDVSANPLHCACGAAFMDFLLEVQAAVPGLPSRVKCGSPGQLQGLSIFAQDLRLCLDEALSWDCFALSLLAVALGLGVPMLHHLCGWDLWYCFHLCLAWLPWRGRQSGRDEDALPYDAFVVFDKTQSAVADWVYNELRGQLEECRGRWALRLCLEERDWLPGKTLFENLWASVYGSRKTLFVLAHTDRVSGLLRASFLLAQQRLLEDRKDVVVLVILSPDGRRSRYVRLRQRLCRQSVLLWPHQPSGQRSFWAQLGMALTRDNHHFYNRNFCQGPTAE
Description: TLR9 inhibition reporter assay (HEK-Blue SEAP). The conditions noted are these: HEK-Blue cells overexpressing human TLR9, stimulated with ODN2006 5 nM, 22 hour incubation. As for the experimental part:
as §1, §2

The target in test [3] is T3, human TLR7 (Homo sapiens, UniProt Q9NYK1).
T3 construct: host or cells: HEK-Blue cells
T3 sequence (Q9NYK1 27-1049): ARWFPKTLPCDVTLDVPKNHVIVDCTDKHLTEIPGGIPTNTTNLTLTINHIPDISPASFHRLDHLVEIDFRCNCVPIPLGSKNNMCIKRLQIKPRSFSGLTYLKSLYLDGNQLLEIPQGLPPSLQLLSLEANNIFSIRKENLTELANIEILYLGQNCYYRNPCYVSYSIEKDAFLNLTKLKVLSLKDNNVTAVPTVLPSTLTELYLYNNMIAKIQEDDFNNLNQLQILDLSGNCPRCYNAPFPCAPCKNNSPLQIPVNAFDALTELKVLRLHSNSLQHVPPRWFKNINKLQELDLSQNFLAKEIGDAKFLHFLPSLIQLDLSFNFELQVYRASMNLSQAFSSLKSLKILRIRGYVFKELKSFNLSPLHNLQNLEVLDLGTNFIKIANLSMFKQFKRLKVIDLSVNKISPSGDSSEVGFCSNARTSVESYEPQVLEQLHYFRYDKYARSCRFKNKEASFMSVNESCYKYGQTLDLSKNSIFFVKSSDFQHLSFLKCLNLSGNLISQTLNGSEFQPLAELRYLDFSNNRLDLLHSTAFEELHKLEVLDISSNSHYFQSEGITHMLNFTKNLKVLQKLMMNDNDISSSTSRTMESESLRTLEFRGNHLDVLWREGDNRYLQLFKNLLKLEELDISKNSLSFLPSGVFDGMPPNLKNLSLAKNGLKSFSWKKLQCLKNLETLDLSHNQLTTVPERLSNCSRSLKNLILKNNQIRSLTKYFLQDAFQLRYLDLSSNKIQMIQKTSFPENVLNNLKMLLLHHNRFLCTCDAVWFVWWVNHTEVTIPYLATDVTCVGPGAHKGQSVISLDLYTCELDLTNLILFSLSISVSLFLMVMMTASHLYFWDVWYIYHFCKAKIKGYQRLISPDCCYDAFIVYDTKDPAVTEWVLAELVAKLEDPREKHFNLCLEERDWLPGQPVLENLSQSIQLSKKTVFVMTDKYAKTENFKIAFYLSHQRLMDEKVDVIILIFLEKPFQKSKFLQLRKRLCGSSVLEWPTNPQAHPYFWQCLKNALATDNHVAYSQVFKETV
Put plainly: TLR7 inhibition reporter assay (HEK-Blue SEAP). To be noted: HEK-Blue cells overexpressing human TLR7, stimulated with gardiquimod 7.5 μM, 22 hour incubation. As for the experimental part: as §1, §2

Broadly, the IC50 is the concentration at which inhibition is half-maximal. High values mean lower potency, low ones higher potency. Take `Cc1cc(-c2[nH]c3ccc(O[C@H]4CCCNC4)cc3c2C(C)C)cn2ncnc12` [Example 9, (S)-6-(3-isopropyl-5-(piperidin-3-yloxy)-1H-indol-2-yl)-8-methyl-[1,2,4]triazolo[1,5-a]pyridine]: the IC50 in test [1] was determined as 10.6 nM; in test [2], 2270 nM; in test [3], 0.8 nM.
The like results for `Cc1cc(-c2[nH]c3ccc(OC4CCNCC4)cc3c2C(C)C)cn2ncnc12` [Example 10, 6-(3-isopropyl-5-(piperidin-4-yloxy)-1H-indol-2-yl)-8-methyl-[1,2,4]triazolo[1,5-a] pyridine] were, in that order, 1.6 nM, 653 nM and 0.6 nM.
The like results for `Cc1cc(-c2[nH]c3ccc(OC4CCNCC4)cc3c2C(C)C)cn(C)c1=O` [Example 11, 5-(3-isopropyl-5-(piperidin-4-yloxy)-1H-indol-2-yl)-1,3-dimethylpyridin-2(1H)-one] were, in that order, 2.1 nM, 1920 nM and 2.8 nM.
In the case of `Cc1cc(-c2[nH]c3ccc(OCC4CCNCC4)cc3c2C(C)C)cn2ncnc12` [Example 12, 6-(3-isopropyl-5-(piperidin-4-ylmethoxy)-1H-indol-2-yl)-8-methyl-[1,2,4] triazolo[1,5-a]pyridine], the IC50 in test [1] amounted to 3 nM; in test [2] it was 1100 nM; in test [3] it was 0.3 nM.
The like results for `Cc1cc(-c2[nH]c3ccc(OC4CCN(CC(C)(C)O)CC4)cc3c2C(C)C)cc(C)n1` [Example 21, 1-(4-((2-(2,6-dimethylpyridin-4-yl)-3-isopropyl-1H-indol-5-yl)oxy)piperidin-1-yl)-2-methylpropan-2-ol] were, in that order, 1.1 nM, 518 nM and 3.6 nM.
For `Cc1cc(-c2[nH]c3ccc(OC4CCN(CC(C)(C)O)CC4)cc3c2C(C)C)cn2ncnc12` [Example 22, 1-(4-((3-isopropyl-2-(8-methyl-[1,2,4]triazolo[1,5-a]pyridin-6-yl)-1H-indol-5-yl)oxy)piperidin-1-yl)-2-methylpropan-2-ol], in that order: 9.2 nM, 4410 nM and 6.3 nM.
For `Cc1cc(-c2[nH]c3ccc(OCC4CCCN(CC(C)(C)O)C4)cc3c2C(C)C)cc(C)n1` (stereo not drawn) [Example 23, 1-(3-(((2-(2,6-dimethylpyridin-4-yl)-3-isopropyl-1H-indol-5-yl)oxy)methyl)piperidin-1-yl)-2-methylpropan-2-ol], in that order: 4.4 nM, 557 nM and 9.6 nM.
Consider `Cc1cc(-c2[nH]c3ccc(OCC4CCN(CC(C)(C)O)CC4)cc3c2C(C)C)cc(C)n1` [Example 24, 1-(4-(((2-(2,6-dimethylpyridin-4-yl)-3-isopropyl-1H-indol-5-yl)oxy)methyl)piperidin-1-yl)-2-methylpropan-2-ol], for which the figures for the IC50 in test [1], in test [2] and in test [3] were 3 nM, 300 nM and 4.3 nM, respectively.
For the compound `Cc1cc(-c2[nH]c3ccc(OCC4CCN(CC(C)(C)O)CC4)cc3c2C(C)C)cn(C)c1=O` [Example 25, 5-(5-((1-(2-hydroxy-2-methylpropyl)piperidin-4-yl)methoxy)-3-isopropyl-1H-indol-2-yl)-1,3-dimethylpyridin-2(1H)-one], the IC50 in test [1] turned out to be 14 nM; in test [2], 11500 nM; in test [3], 115 nM.
For `Cc1cc(-c2[nH]c3ccc(OCC4CN(CC(C)(C)O)C4)cc3c2C(C)C)cn2ncnc12` [Example 26, 1-(3-(((3-isopropyl-2-(8-methyl-[1,2,4]triazolo[1,5-a]pyridin-6-yl)-1H-indol-5-yl)oxy)methyl)azetidin-1-yl)-2-methylpropan-2-ol], in that order: 3.5 nM, 3160 nM and 1.1 nM.
The like results for `Cc1cc(-c2[nH]c3ccc(OCC4CCN(CC(C)(C)O)CC4)cc3c2C(C)C)cn2ncnc12` [Example 27, 1-(4-(((3-isopropyl-2-(8-methyl-[1,2,4]triazolo[1,5-a]pyridin-6-yl)-1H-indol-5-yl)oxy)methyl)piperidin-1-yl)-2-methylpropan-2-ol] were, in that order, 1.7 nM, 1750 nM and 0.5 nM.
